From patent publication US11285135B2 (AMGEN INC., priority 2016, dated 2022) come the findings set out here.

Where two headings read alike, the source gives them in different places. A value given as a limit tells only on which side of the number the result lay.

In experiment [1] the target is GDP-bound protein (aa 1-169), containing both G12C and C118A amino acid substitutions (Homo sapiens, UniProt P01116, C118A/G12C). As to the kind of experiment: Coupled Nucleotide Exchange Assay (SOS-mediated nucleotide exchange, AlphaScreen). It is filed as biochemical. The note with it: 2 hours compound pre-incubation. Put shortly: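 AlphaScreen signal after SOS (aa 564-1049)/GTP-driven exchange (1 h) on GDP-loaded His-[…] G12C/C118A (aa 1-169), following a 2 h compound pre-incubation in HEPES pH 7.4 buffer with 10 mM MgCl2 and 0.01% Triton X-100. IC50s fitted by 4-parameter logistic model.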
(In general: Bead proximity is the source of the signal in Alpha formats.)

Experiment [2] concerns Phosphorylation of ERK½ in MIA PaCa-2 cells. Put plainly: Phospho-ERK½ MSD Assay in MIA PaCa-2 cells. To be noted: 4 hours compound treatment, 10 ng/mL EGF for 10 min, read-out: p-ERK IC50 (MIA PaCa-2). It is filed as cell-based. Here is the method:
(§1) Phospho-ERK½ MSD Assay: MIA PaCa-2 (ATCC® CRL-1420™) and A549 (ATCC® CCL-185™) cells were cultured in RPMI 1640 Medium (ThermoFisher Scientific 11875093) containing 10% fetal bovine serum (ThermoFisher Scientific 16000044) and 1× penicillin-streptomycin-glutamine (ThermoFisher Scientific 10378016). Sixteen hours prior to compound treatment, MIA PaCa-2 or A549 cells were seeded in 96-well cell culture plates at a density of 25,000 cells/well and incubated at 37° C., 5% CO2. A compound dose-response titration was diluted in growth media, added to appropriate wells of a cell culture plate, and then incubated at 37° C., 5% CO2 for 4 hours. Following compound treatment, cells were stimulated with 10 ng/mL EGF (Roche 11376454001) for 10 min, washed with ice-cold Dulbecco's phosphate-buffered saline, no Ca^2+ or Mg^2+ (ThermoFisher Scientific 14190144), and then lysed in RIPA buffer (50 mM Tris-HCl pH 7.5, 1% Igepal, 0.5% sodium deoxycholate, 150 mM NaCl, and 0.5% sodium dodecyl sulfate) containing protease inhibitors (Roche 4693132001) and phosphatase inhibitors (Roche 4906837001). Cell lysates were stored frozen at −80° C. overnight. Phosphorylation of ERK½ in compound-treated lysates was assayed using Phospho-ERK½ Whole Cell Lysate kits (Meso Scale Discovery K151DWD) according to the manufacturer's protocol. Assay plates were read on a Meso Scale Discovery Sector Imager 6000, and data were analyzed using a 4-parameter logistic model to calculate IC50 values.

In experiment [3] the test system is Phosphorylation of ERK½ in A549 cells. As to the kind of experiment: Phospho-ERK½ MSD Assay in A549 cells. To be noted: 4 hours compound treatment, 10 ng/mL EGF for 10 min, read-out: p-ERK IC50 (A549). It counts as cell-based. On the procedure: as §1
Setting [4] is: Homo sapiens, MIA PaCa-2, MIA PaCa-2 cells.

GDP-bound protein (aa 1-169), containing both G12C and C118A amino acid substitutions, sequence (P01116 1-169 isoform P01116-2 G12C/C118A): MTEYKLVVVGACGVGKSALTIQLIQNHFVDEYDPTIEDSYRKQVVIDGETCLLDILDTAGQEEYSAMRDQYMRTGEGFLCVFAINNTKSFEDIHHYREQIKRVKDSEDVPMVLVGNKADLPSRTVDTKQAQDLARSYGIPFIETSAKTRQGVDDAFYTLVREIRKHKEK

In the case of `C=CC(=O)N1CCN(c2snc3nc(-c4c(C)ccc5[nH]ncc45)c(Cl)cc23)C(C)C1` (single isomer, unassigned) [Example 2-6-2, 1-((3R)-4-(5-chloro-6-(5-methyl-1H-indazol-4-yl)[1,2]thiazolo[3,4-b]pyridin-3-yl)-3-methyl-1-piperazinyl)-2-propen-1-one or 1-((3S)-4-(5-chloro-6-(5-methyl-1H-indazol-4-yl)[1,2]thiazolo[3,4-b]pyridin-3-yl)-3-methyl-1-piperazinyl)-2-propen-1-one], the “Coupled exchange IC50” value in experiment [1] was 1250 nM. In addition, the IC50 – broadly, the concentration at which inhibition is half-maximal – in experiment [2] (setting [4]) came out at 1290 nM; in experiment [3] (Homo sapiens, A549, A549 cells) it was 3700 nM.
For `C=CC(=O)N1CCN(c2snc3c(F)c(-c4cc(O)cc5ccccc45)c(Cl)cc23)CC1` (single isomer, unassigned) [Example 3-1-1, 1-(4-(5-chloro-7-fluoro-6-(3-hydroxy-1-naphthalenyl)-2,1-benzothiazol-3-yl)-1-piperazinyl)-2-propen-1-one], the “Coupled exchange IC50” value in experiment [1] amounted to 3000 nM. In addition, the IC50 in experiment [2] (MIA PaCa-2 cells) and in experiment [3] (A549 cells) was more than 100000 nM in each case.
On to `C=CC(=O)N1CCN(c2snc3c(F)c(-c4cc(O)cc5ccccc45)c(Cl)cc23)CC1` (single isomer, unassigned) [Example 3-1-2, 1-(4-(5-chloro-7-fluoro-6-(3-hydroxy-1-naphthalenyl)-2,1-benzothiazol-3-yl)-1-piperazinyl)-2-propen-1-one], for which, in experiment [1], the “Coupled exchange IC50” value stood at 302 nM. In addition, the results for the IC50 in experiment [2] (MIA PaCa-2 cells) and in experiment [3] (A549 cells) were 2350 nM and more than 100000 nM, respectively.
Regarding `C=CC(=O)N1CCN(c2nc(=O)n(-c3ccccc3C(C)C)c3cc(-c4c(O)cccc4F)c(Cl)cc23)CC1` (single isomer, unassigned) [Example 8-1-1, 6-chloro-7-(2-fluoro-6-hydroxyphenyl)-1-(2-(2-propanyl)phenyl)-4-(4-(2-propenoyl)-1-piperazinyl)-2(1H)-quinazolinone], in experiment [1], the “Coupled exchange IC50” value came out at 172 nM. For the same compound, the IC50 was 46 nM in experiment [2] (MIA PaCa-2 cells) and 69800 nM in experiment [3] (A549 cells).
Regarding `C=CC(=O)N1CCN(c2nc(=O)n(-c3ccccc3C(C)C)c3cc(-c4c(O)cccc4F)c(Cl)cc23)CC1` (single isomer, unassigned) [Example 8-1-2, 6-Chloro-7-(2-fluoro-6-hydroxyphenyl)-1-(2-(2-propanyl)phenyl)-4-(4-(2-propenoyl)-1-piperazinyl)-2(1H)-quinazolinone], the “Coupled exchange IC50” value in experiment [1] was 322 nM. The IC50 was 811 nM in experiment [2] (MIA PaCa-2 cells) and more than 100000 nM in experiment [3] (A549 cells).
As for `C=CC(=O)N1CCN(c2nc(=O)n(-c3ccccc3C(C)C)c3cc(-c4c(O)cccc4F)c(Cl)cc23)[C@@H](C)C1` (single isomer, unassigned) [Example 8-3-1], in experiment [1], the “Coupled exchange IC50” value amounted to 282 nM. For the same compound, the IC50 in experiment [2] (MIA PaCa-2 cells) is 408 nM; in experiment [3] (Homo sapiens, A549, A549 cells) it was more than 100000 nM.
As to `C=CC(=O)N1CCN(c2nc(=O)n(-c3ccccc3C(C)C)c3cc(-c4c(O)cccc4F)c(Cl)cc23)[C@@H](C)C1` (single isomer, unassigned) [Example 8-3-2], the “Coupled exchange IC50” value in experiment [1] is 340 nM. Besides, the IC50 was 28 nM in experiment [2] (MIA PaCa-2 cells) and more than 100000 nM in experiment [3] (A549 cells).
The corresponding values for `C=CC(=O)N1CCN(c2nc(=O)n(-c3ccccc3C(C)C)c3nc(-c4c(O)cccc4F)c(Cl)cc23)[C@@H](C)C1` (single isomer, unassigned) [Example 8-6-1] are 66 nM, 10 nM and more than 33300 nM.
Consider `C=CC(=O)N1CCN(c2nc(=O)n(-c3ccccc3C(C)C)c3nc(-c4c(O)cccc4F)c(Cl)cc23)[C@@H](C)C1` (single isomer, unassigned) [Example 8-6-2], for which the “Coupled exchange IC50” value in experiment [1] is 185 nM. For the same compound, the IC50 in experiment [2] (MIA PaCa-2 cells) was 128 nM; in experiment [3] (A549 cells, listed as 8-6-7), more than 100000 nM.
Turning to `C=CC(=O)N1CCN(c2nc(=O)n(-c3ccccc3C(C)C)c3cc(-c4c(C)ccc5[nH]ncc45)c(Cl)cc23)CC1` (single isomer, unassigned) [Example 11-1-1, 6-chloro-7-(5-methyl-1H-indazol-4-yl)-1-(2-(2-propanyl)phenyl)-4-(4-(2-propenoyl)-1-piperazinyl)-2(1H)-quinazolinone], in experiment [1], the “Coupled exchange IC50” value is 231 nM. In addition, the IC50 amounted to 247 nM in experiment [2] (MIA PaCa-2 cells) and 42900 nM in experiment [3] (Homo sapiens, A549, A549 cells).
Turning to `C=CC(=O)N1CCN(c2nc(=O)n(-c3ccccc3C(C)C)c3cc(-c4c(C)ccc5[nH]ncc45)c(Cl)cc23)CC1` (single isomer, unassigned) [Example 11-1-2, 6-chloro-7-(5-methyl-1H-indazol-4-yl)-1-(2-(2-propanyl)phenyl)-4-(4-(2-propenoyl)-1-piperazinyl)-2(1H)-quinazolinone], the “Coupled exchange IC50” value in experiment [1] amounted to 151 nM. In addition, the IC50 is 16 nM in experiment [2] (MIA PaCa-2 cells) and 21700 nM in experiment [3] (A549 cells).
The corresponding values for `C=CC(=O)N1CCN(c2nc(=O)n(-c3ccccc3C(C)C)c3cc(-c4c(C)ccc5[nH]ncc45)c(Cl)cc23)[C@@H](C)C1` (single isomer, unassigned) [Example 11-2-1] are 219 nM, 54 nM and 10000 nM.
Regarding `C=CC(=O)N1CCN(c2nc(=O)n(-c3ccccc3C(C)C)c3cc(-c4c(C)ccc5[nH]ncc45)c(Cl)cc23)[C@@H](C)C1` (single isomer, unassigned) [Example 11-2-2], in experiment [1], the “Coupled exchange IC50” value worked out at 256 nM. Further, the IC50 stood at 6 nM in experiment [2] (MIA PaCa-2 cells) and 26400 nM in experiment [3] (A549 cells).
For the compound `C=CC(=O)N1CCN(c2snc3c(F)c(-c4cc(O)cc5ccccc45)c(Cl)cc23)C(CO)C1` (stereo in doubt) [Example 1-7, 1-((3R)-4-(5-chloro-7-fluoro-6-(3-hydroxy-1-naphthalenyl)-2,1-benzothiazol-3-yl)-3-(hydroxymethyl)-1-piperazinyl)-2-propen-1-one], in experiment [1], the “Coupled exchange IC50” value was determined as 209 nM. For the same compound, the IC50 in experiment [2] (setting [4]) is 1860 nM; in experiment [3] (Homo sapiens, A549, A549 cells), more than 100000 nM.
With `C=CC(=O)N1CCN(c2snc3c(F)c(-c4cc(O)cc5ccccc45)c(Cl)cc23)C(CCO)C1` (stereo in doubt) [Example 1-11, 1-((3S)-4-(5-chloro-7-fluoro-6-(3-hydroxy-1-naphthalenyl)-2,1-benzothiazol-3-yl)-3-(2-hydroxyethyl)-1-piperazinyl)-2-propen-1-one], the “Coupled exchange IC50” value in experiment [1] is 695 nM. Besides, the IC50 in experiment [2] (setting [4]) is 8200 nM; in experiment [3] (Homo sapiens, A549, A549 cells), more than 100000 nM.
With `C=CC(=O)N1CCN(c2snc3c(F)c(-c4cc(O)ccc4Br)c(Cl)cc23)CC1` [Example 1-1, 1-(4-(6-(2-bromo-5-hydroxyphenyl)-5-chloro-7-fluorobenzo[c]isothiazol-3-yl)piperazin-1-yl)prop-2-en-1-one], in experiment [1], the “Coupled exchange IC50” value is 355 nM. Also, the IC50 in experiment [2] (setting [4]) was 2550 nM; in experiment [3] (Homo sapiens, A549, A549 cells), more than 33300 nM.
As to `C=CC(=O)N1CCN(c2snc3c(F)c(-c4c[nH]c5ccccc45)c(Cl)cc23)CC1` [Example 1-2, 1-(4-(5-chloro-7-fluoro-6-(1H-indol-3-yl)-2,1-benzothiazol-3-yl)-1-piperazinyl)-2-propen-1-one], the “Coupled exchange IC50” value in experiment [1] is 2380 nM. For the same compound, the IC50 in experiment [2] (setting [4]) was 6080 nM; in experiment [3] (Homo sapiens, A549, A549 cells) it was more than 100000 nM.
Turning to `C=CC(=O)N1CCN(c2snc3cc(-c4cc(OC)cc5ccccc45)c(Cl)cc23)CC1` [Example 1-4, 1-(4-(5-chloro-6-(3-methoxy-1-naphthalenyl)-2,1-benzothiazol-3-yl)-1-piperazinyl)-2-propen-1-one], the “Coupled exchange IC50” value in experiment [1] is more than 10000 nM. For the same compound, the IC50 in experiment [2] (setting [4]) was more than 100000 nM; in experiment [3] (Homo sapiens, A549, A549 cells), more than 100000 nM.
Regarding `C=CC(=O)N1CCN(c2snc3cc(-c4c(O)cccc4F)c(Cl)cc23)CC1` [Example 1-6, 1-(4-(5-chloro-6-(2-fluoro-6-hydroxyphenyl)-2,1-benzothiazol-3-yl)-1-piperazinyl)-2-propen-1-one], the “Coupled exchange IC50” value in experiment [1] was 2880 nM. The IC50 in experiment [2] (setting [4]) was 36200 nM; in experiment [3] (Homo sapiens, A549, A549 cells) it was more than 100000 nM.
The corresponding values for `C=CC(=O)N1CCN(c2snc3c(F)c(-c4c(C)ccc5[nH]ncc45)c(Cl)cc23)[C@@H](C)C1` [Example 1-10, 1-((3S)-4-(5-chloro-7-fluoro-6-(5-methyl-1H-indazol-4-yl)-2,1-benzothiazol-3-yl)-3-methyl-1-piperazinyl)-2-propen-1-one] are 381 nM, 1090 nM and 11100 nM.
